Assays:
[1] = tested on: human normal embryonic kidney cells HEK293; test: MTS cell viability assay, HEK293; assay type: cell-based; conditions: 24 h exposure, mean ± SD, read-out: Half Maximal Inhibitory Concentration (IC50) HEK293
Procedure: (§1) In the present study, the cytotoxic activity of compounds 1–3, 5–7, and 9 against human normal embryonic kidney cells HEK293 and a panel of human cancer cells HT-29, SK-MEL-28, and MDA-MB-231 was measured by the MTS assay after 24 h of exposure. Different concentrations of doxorubicin (10, 50, and 100 µM), used as a positive control, and compounds 1–3, 5–7, and 9 (1, 10, and 50 µM) were studied.
(§2) The human embryonic kidney cells HEK293 (ATCC® CRL-1573™), the colorectal adenocarcinoma cell line HT-29 (ATCC® HTB-38), the melanoma SK-MEL-28 (ATCC® HTB-72™), and breast adenocarcinoma MDA-MB-231 (ATCC® HTB-26™) cell lines were obtained from the American Type Culture Collection (Manassas, VA, USA).
(§3) HT 29 cells were cultured in McCoy’s 5A medium; HEK293, SK-MEL-28, and MDA-MB-231 cell lines were maintained in the DMEM medium. The culture media were supplemented with 10% FBS and a 1% penicillin/streptomycin solution. The cell cultures were maintained at 37 °C in a humidified atmosphere containing 5% CO2.
(§4) Compounds 1–3, 5–7, and 9 were dissolved in a sterile dimethyl sulfoxide solution (DMSO) to prepare stock concentrations of 20 mM. Cells were exposed to serially diluted 1–3, 5–7, and 9 (1–100 µM) (with the culture medium used as a diluent) (the final concentration of DMSO was less than 0.5%).
(§5) Doxorubicin (Doxo) (Teva Pharmaceutical Industries, Ltd. (Israel)) was dissolved in sterile PBS to prepare stock concentrations of 10 mM. Cells were exposed to serially diluted Doxo (10–100 µM) (with the culture medium used as a diluent).
(§6) The effect of compounds 1–3, 5–7, and 9 on the viability of tested cell lines was evaluated by the MTS assay. HEK293 (1.0 × 10^4/200 µL), HT-29 (1.0 × 10^4/200 µL), SK-MEL-28 (0.8 × 10^4/200 µL), and MDA-MB-231 (1.0 × 10^4/200 µL) cells were seeded on a 96-well plate and incubated for 24 h at 37°C in a CO2 incubator. The cells were exposed to either DMSO (vehicle control) or Doxo at concentrations of […] (positive control) or 1–3, 5–7, and 9 at concentrations of 1, 10, and 50 µM for 24 h. The cells were subsequently incubated with 15 µL MTS reagent for 3 h, and the absorbance of each well was measured at 490/630 nm on a Power Wave XS microplate reader (BioTek, Winooski, VT, USA). The concentration at which a compound exerted half of its maximal inhibitory effect on cell viability (IC50) was calculated using the AAT-Bioquest® online calculator [27].

[2] = tested on: colorectal adenocarcinoma cell line HT-29; test: MTS cell viability assay, HT-29; assay type: cell-based; conditions: Homo sapiens, 24 h exposure, mean ± SD, read-out: Half Maximal Inhibitory Concentration (IC50) HT-29
Procedure: as §1, §2, §3, §4, §5, §6

melanoma SK-MEL-28 cells = test: MTS cell viability assay, SK-MEL-28; assay type: cell-based; conditions: Homo sapiens, 24 h exposure, mean ± SD, read-out: Half Maximal Inhibitory Concentration (IC50) SK-MEL-28
Procedure: as §1, §2, §3, §4, §5, §6

[3] = tested on: breast adenocarcinoma MDA-MB-231 cells; test: MTS cell viability assay, MDA-MB-231; assay type: cell-based, human; conditions: for IC50: Homo sapiens, MDA-MB-231, MTS assay, 24 h exposure, mean ± SD, read-out: Half Maximal Inhibitory Concentration (IC50) MDA-MB-231; for cytotoxic activity against MDA-MB-231 cells (in words): concentrations of up to 50 µM, MTS, 24 h
Procedure: as §1, §2, §3, §4, §5, §6

[4] = tested on: human breast cancer cells MDA-MB-231; test: Soft agar colony formation assay; assay type: cell-based; conditions: MDA-MB-231, 336 h, 14 days of incubation, read-out: inhibition of colony formation (decrease in number of colonies) of MDA-MB-231 cells
From the text: Since compounds 1–3, 5–7, and 9 inhibited the viability of breast cancer cells MDA-MB-231, we then tested their ability to inhibit colony formation of MDA-MB-231 cells using the soft agar assay. The colony formation assay, also referred to as soft agar assay, allows for screening the therapeutic efficacy of compounds for anchorage-independent cell growth, which is one of the hallmark characteristics of cellular transformation and uncontrolled growth of cancer cells.
Figure 4 The effect of compounds 1–3, 5–7, and 9 on colony formation of human breast cancer cells MDA-MB-231 (2.4 × 10^4) that were exposed to PBS (control), Doxo (5, 10, and 20 µM), or the compounds under study (5, 10, and 20 µM) and placed on dishes with 0.3% Basal Medium Eagle (BME) agar containing 10% fetal bovine serum FBS, 2 mM L-glutamine, and 25 µg/mL gentamicin. After 14 days of incubation, the number of colonies was counted under a microscope using the ImageJ software program.
MDA-MB-231 cells (2.4 × 10^4/mL) were exposed to either DMSO (vehicle control) or Doxo (positive control) at concentrations of 5, 10, and 20 µM, and to 1–3, 5–7, and 9 at concentrations of 5, 10, 20 µM. Then, the cells were applied on dishes with 0.3% BME agar containing 10% FBS, 2 mM L-glutamine, and 25 µg/mL gentamicin. The cultures were maintained at 37°C in a 5% CO2 incubator for 14 days. The number and size of the colonies were estimated under a Motic microscope AE 20 and using the ImageJ software bundled with 64-bit Java 1.8.0_112 (NIH, Bethesda, Maryland, USA).

[5] = tested on: murine leukemic cells L1210; set-up: method as in doi:10.1021/jo00080a023, PMID 12192142; conditions: at a concentration of 2 μM; ref [21],[28]; cited from earlier work
[6] = tested on: a number of human cancer cell lines; set-up: method as in doi:10.1021/jo00080a023, PMID 12192142; conditions: at concentrations of 15–34 μM; ref [21],[28]; cited from earlier work

IC50 [2]	IC50 (melanoma SK-MEL-28 cells)	IC50 [3]	SMILES	IC50 [1]	cytotoxic activity against MDA-MB-231 cells (in words) [3]	inhibition at 20 µM [4]	cytotoxic activity against murine leukemic cells L1210 (in words) [5]	cytotoxic activity against a number of human cancer cell lines (in words) [6]
> 50 µM	> 50 µM	> 50 µM	CCCCCCCCCCCCCCCCCCCC[C@@H](O)C(=O)N[C@@H](CO[C@@H]1O[C@H](CO)[C@@H](O)[C@H](O)[C@H]1O)[C@H](O)[C@H](O)CCCCCCCCCC(C)CC (some centres unmarked) [Compound 7, CE-3-2]	> 50 µM	slight cytotoxic activity	44%		
21.8 ± 3.2 µM	40 ± 5 µM	22.3 ± 0.2 µM	COc1cccc2c1C(=O)c1c(O)c3c(c(O)c1C2=O)C[C@@](O)(C(=O)CO)C[C@@H]3O[C@H]1C[C@H](N)[C@H](O)[C@H](C)O1 [Doxorubicin, reference compound]	35.7 ± 1.2 µM		70%		
> 50 µM	> 50 µM	48.7 ± 1.8 µM	CCCCCCC/C=C/C(C)=C/CC/C=C/[C@@H](O)[C@H](CO[C@@H]1O[C@H](CO)[C@@H](O)[C@H](O)[C@H]1O)NC(=O)[C@H](O)CCCCCCCCCCCCCCCCCCCC [Compound 5, ophidiacerebroside C]	> 50 µM		54%	strong cytotoxic activity	moderate cytotoxic activity
> 50 µM	> 50 µM	> 50 µM	CCCCCCCCCCCCCC[C@@H](O)C(=O)N[C@@H](CO)[C@H](O)[C@H](O)CCCC/C=C\CCCCCCCCC(C)C [Compound 1, (2S,3S,4R,9Z)-2-[(2R)-2-hydroxyhexadecanoylamino]-19-methyl-9-icosen-1,3,4-triol]	> 50 µM	slight cytotoxic activity	46%		
> 50 µM	> 50 µM	> 50 µM	CCCCCCCCCCCCCCCCCCCCCC[C@@H](O)C(=O)N[C@@H](CO[C@@H]1O[C@H](CO)[C@@H](O)[C@H](O)[C@H]1O)[C@H](O)[C@H](O)CCCCCCCCCC(C)CC (stereo partly drawn) [Compound 9, (2S,3S,4R)-1-O-(β-D-glucopyranosyl)-2-[(2R)-2-hydroxytetracosanoylamino]-14-methylhexadecan-3,4-diol]	> 50 µM	slight cytotoxic activity	50%		
> 50 µM	> 50 µM	49.4 ± 1.6 µM	CCCCCCCCCCCCCCC[C@@H](O)C(=O)N[C@@H](CO)[C@H](O)[C@H](O)CCCC/C=C\CCCCCCCCCCC(C)C [Compound 3, (2S,3S,4R,9Z)-2-[(2R)-2-hydroxyheptadecanoylamino]-21-methyl-9-docosen-1,3,4-triol]	> 50 µM		48%		
> 50 µM	> 50 µM	40.5 ± 0.5 µM	CCCCCCC/C=C/C(C)=C/CC/C=C/[C@@H](O)[C@H](CO[C@@H]1O[C@H](CO)[C@@H](O)[C@H](O)[C@H]1O)NC(=O)[C@H](O)CCCCCCCCCCCCCCCCCCCCC [Compound 6, ophidiacerebroside D]	> 50 µM		68%	strong cytotoxic activity	moderate cytotoxic activity
> 50 µM	> 50 µM	48.7 ± 2.4 µM	CCCCCCCCCCCCCC[C@@H](O)C(=O)N[C@@H](CO)[C@H](O)[C@H](O)CCCC/C=C\CCCCCCCCCCC(C)C [Compound 2, (2S,3S,4R,9Z)-2-[(2R)-2-hydroxyhexadecanoylamino]-21-methyl-9-docosen-1,3,4-triol]	> 50 µM		68%		

Reference: publication PMC9604662, “New Ceramides and Cerebrosides from the Deep-Sea Far Eastern Starfish Ceramaster patagonicus” (Marine Drugs, 2022)
